Results: patent US9029356B2, “Substituted indazole derivatives active as kinase inhibitors” (Nerviano Medical Services S.R.L., priority 2007, dated 2015)

How the values were obtained:
IGF-1R = IGF-1R (Homo sapiens (Human), UniProt P08069); test: Biochemical assay for inhibitors of IGF-1R kinase activity; conditions: 6 nM enzyme, 6 microM ATP, 10 microM peptide substrate
Protocol: Biochemical Assay for Inhibitors of IGF-1 R Kinase Activity The inhibitory activity of putative kinase inhibitors and the potency of selected compounds were determined using a trans-phosphorylation assay. A specific substrate was incubated with the kinase in appropriate buffer conditions in the presence of ATP traced with ^33P-γ-ATP (gamma phosphate-labeled, RedivueTM Code Number AH9968, 1000-3000 Ci/mmole, Amersham Biosciences Piscataway, N.J., USA), optimal cofactors and test compound. At the end of the phosphorylation reaction, more than 98% cold and radioactive ATP were captured by an excess of Dowex ion exchange resin. The resin was allowed to settle to the bottom of reaction wells by gravity. Supernatant, containing substrate peptide, was subsequently withdrawn and transferred into a counting plate, and radioactivity (corresponding to phosphate incorporated into peptide) was evaluated by β-counting. […] Prior to starting the kinase inhibition assay, IGF-1R was pre-phosphorylated in order to linearize reaction kinetics. […] The peptide was obtained in batches of >95% peptide purity from American Peptide Company, Inc. (Sunnyvale, Calif., USA). […] Compounds showing desired inhibition were further analysed in order to study the potency of the inhibitor through IC50 calculation. […]

ALK = ALK (Homo sapiens (Human), UniProt Q9UM73); test: Biochemical assay for inhibitors of ALK kinase activity; conditions: 20 nM enzyme, 8 microM ATP, 2 microM MBP
Sequence of ALK (Q9UM73 1060-1620): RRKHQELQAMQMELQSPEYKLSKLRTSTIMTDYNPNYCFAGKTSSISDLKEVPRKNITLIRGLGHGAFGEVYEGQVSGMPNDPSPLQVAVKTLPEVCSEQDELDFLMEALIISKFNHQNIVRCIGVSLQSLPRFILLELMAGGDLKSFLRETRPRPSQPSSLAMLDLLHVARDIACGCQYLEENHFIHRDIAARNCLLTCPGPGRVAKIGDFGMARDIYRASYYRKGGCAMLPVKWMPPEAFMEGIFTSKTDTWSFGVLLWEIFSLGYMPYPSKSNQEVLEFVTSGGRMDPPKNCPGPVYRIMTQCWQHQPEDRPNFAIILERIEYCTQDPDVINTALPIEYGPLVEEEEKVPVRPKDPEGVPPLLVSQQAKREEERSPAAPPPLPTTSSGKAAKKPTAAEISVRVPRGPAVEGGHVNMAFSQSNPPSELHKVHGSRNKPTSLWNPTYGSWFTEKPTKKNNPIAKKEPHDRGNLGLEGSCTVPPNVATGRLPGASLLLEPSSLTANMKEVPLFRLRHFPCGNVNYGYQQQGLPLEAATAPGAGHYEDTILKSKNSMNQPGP
From the text: Preparation of ALK Cytoplasmic Domain for Use in Biochemical Assay
For cloning purposes, the oligonucleotides included attB sites in order to obtain an attB-flanked PCR product suitable for cloning using the Gateway technology (Invitrogen). Furthermore, for purification purposes, forward primer included a PreScission cleavage site (Amersham Biosciences). The resulting PCR product was cloned in the baculovirus expression vector pVL1393 (Invitrogen) Gateway-modified. For expression and purification purpose, a GST tag was added N-terminal to the ALK cytoplasmic domain. Cloning was performed according to the protocols described in the Gateway manual (Invitrogen).
Affinity purified GST-ALK was loaded on a Heparin Sepharose™ FF (Amersham Biosciences) column and eluted with 50 mM NaCl, 25 mM TRIS pH 7.5, 2 mM DTT, 20% glycerol.
Biochemical Assay for Inhibitors of ALK Kinase Activity

Sequence of IGF-1R (P08069 960-1367): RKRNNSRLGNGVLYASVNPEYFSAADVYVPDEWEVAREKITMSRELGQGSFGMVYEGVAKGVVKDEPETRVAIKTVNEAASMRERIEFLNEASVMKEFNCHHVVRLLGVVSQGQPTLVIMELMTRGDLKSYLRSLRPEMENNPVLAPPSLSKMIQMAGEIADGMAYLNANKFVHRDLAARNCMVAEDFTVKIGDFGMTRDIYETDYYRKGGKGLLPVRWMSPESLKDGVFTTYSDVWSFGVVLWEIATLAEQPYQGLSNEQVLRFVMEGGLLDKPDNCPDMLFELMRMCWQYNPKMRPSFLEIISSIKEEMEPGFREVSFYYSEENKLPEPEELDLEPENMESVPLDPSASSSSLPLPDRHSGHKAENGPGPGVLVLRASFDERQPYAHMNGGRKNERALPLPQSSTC

SMILES | IC50 (IGF-1R) [µM] | IC50 (ALK) [µM]
CN1CCN(c2ccc(C(=O)Nc3n[nH]c4ccc(Cc5cc(F)cc(F)c5)cc34)c(NC3CCCCC3)c2)CC1 [Cpd 18, 2-Cyclohexylamino-N-[5-(3,5-difluoro-benzyl)-1H-indazol-3-yl]-4-(4-methyl-piperazin-1-yl)-benzamide] | 6.07 | 1.77
CN1CCN(c2ccc(C(=O)Nc3n[nH]c4ccc(Cc5cc(F)cc(F)c5)cc34)cc2)CC1 [Cpd 4, N-[5-(3,5-Difluoro-benzyl)-1H-indazol-3-yl]-4-(4-methyl-piperazin-1-yl)-benzamide] |  | 0.207
COCCNc1cc(N2CCN(C)CC2)ccc1C(=O)Nc1n[nH]c2ccc(Cc3cc(F)cc(F)c3)cc12 [Cpd 26, N-[5-(3,5-Difluoro-benzyl)-1H-indazol-3-yl]-2-(2-methoxy-ethylamino)-4-(4-methyl-piperazin-1-yl)-benzamide] |  | 0.411
